Consider six compounds from PubChem BioAssay AID180 (DTP/NCI, 2004).

Values joined by “and” are separate entries in the source; they are usually repeats but may differ in a detail not shown here. Equal entries are not always repeated.

By T/C is commonly meant the result in the treated group divided by that in the control group, in per cent.

For this experiment, the system named is BDF1 mice, Adenocarcinoma 755 s.c., tumor weight T/C. Put plainly: NCI In Vivo Anticancer Drug Screen. Data for tumor model Adenocarcinoma 755 (subcutaneous) in B6D2F1 (BDF1) mice. The conditions noted are these: endpoint: mean tumor weight, schedule: Q01DX011 (ip), higher = larger tumour. The gist of the method:
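Readout: T/C, i.e. treated-group measurement over vehicle-control measurement. Endpoint is survival or tumor size in tumor-bearing mice given compound.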

The mark [1] stands for this setting: dose: 6.0 mg/kg/injection, vehicle: carboxymethylcellulose (CMC).
The mark [2] stands for this setting: dose: 12.0 mg/kg/injection, vehicle: carboxymethylcellulose (CMC).
Setting [3] is: dose: 25.0 mg/kg/injection, vehicle: carboxymethylcellulose (CMC).
The mark [4] stands for this setting: dose: 50.0 mg/kg/injection, vehicle: carboxymethylcellulose (CMC).

On to `CCN(CC)c1ccc(/C=C/c2ccnc3ccccc23)cc1`, for which the T/C (dose: 2.5 mg/kg/injection, vehicle: other) is 86 % of control; the T/C (dose: 3.03 mg/kg/injection, vehicle: carboxymethylcellulose (CMC)) is 77 % of control; the T/C (dose: 3.23 mg/kg/injection, vehicle: other) is 84 % of control; the T/C (dose: 4.8 mg/kg/injection, vehicle: carboxymethylcellulose (CMC)) is 74 % of control; the T/C (dose: 5.0 mg/kg/injection, vehicle: other) is 91 % of control; the T/C under setting [1] is 69 % of control. The T/C (dose: 6.05 mg/kg/injection, vehicle: carboxymethylcellulose (CMC)) is 119 % of control; the T/C (dose: 6.45 mg/kg/injection, vehicle: other) is 115 % of control; the T/C (dose: 8.0 mg/kg/injection, vehicle: carboxymethylcellulose (CMC)) is 55 % of control; the T/C (dose: 9.68 mg/kg/injection, vehicle: carboxymethylcellulose (CMC)) was 64 % of control; the T/C under setting [2] is 46 % of control; the T/C (dose: 12.1 mg/kg/injection, vehicle: carboxymethylcellulose (CMC)) is 31 % of control. The T/C runs as follows: (dose: 12.9 mg/kg/injection, vehicle: other) 55 % of control; (dose: 14.0 mg/kg/injection, vehicle: carboxymethylcellulose (CMC)) 70 % of control; (dose: 15.0 mg/kg/injection, vehicle: other) 25 % of control; (dose: 16.13 mg/kg/injection, vehicle: carboxymethylcellulose (CMC)) 52 % of control.
Take `O=S(=O)(NCc1ccccn1)c1ncnc2nc[nH]c12`: the T/C runs as follows: under setting [2], 119 % of control; under setting [3], 101 % of control; under setting [4], 99 % of control.
Turning to `Cn1c(N)nc2nc[nH]c2c1=O`, the T/C by setting is: (dose: 9.3 mg/kg/injection, vehicle: methylcellulose (MC)) 79 % of control; (dose: 18.7 mg/kg/injection, vehicle: methylcellulose (MC)) 68 % of control; (dose: 37.5 mg/kg/injection, vehicle: methylcellulose (MC)) 29 % of control.
Consider `O=S(=O)(F)c1ncnc2nc[nH]c12`, for which the T/C reads like this: (dose: 3.13 mg/kg/injection, vehicle: methylcellulose (MC)) 75 % of control; (dose: 6.25 mg/kg/injection, vehicle: methylcellulose (MC)) 113 % of control; (dose: 12.5 mg/kg/injection, vehicle: methylcellulose (MC)) 72 % of control.
Consider `S=c1nc[nH]c2c1ncn2C1CCCO1` (configuration not stated), for which the T/C was 26 % of control (dose: 0.5 mg/kg/injection, vehicle: carboxymethylcellulose (CMC)); 75 % of control (dose: 1.0 mg/kg/injection, vehicle: carboxymethylcellulose (CMC)); 47 % of control (dose: 1.5 mg/kg/injection, vehicle: carboxymethylcellulose (CMC)); 11 % of control under setting [1]; 6 % of control under setting [2]; 4 % of control under setting [3]. The T/C is 6 % of control under setting [4] and 6 % of control (dose: 100.0 mg/kg/injection, vehicle: carboxymethylcellulose (CMC)).
For the compound `Cn1c(=O)c2[nH]c(N/N=C/c3ccccc3)nc2n(C)c1=O`, the T/C reads like this: (dose: 20.0 mg/kg/injection, vehicle: methylcellulose (MC)) 56 % of control; (dose: 25.0 mg/kg/injection, vehicle: methylcellulose (MC)) 45 % of control and 53 % of control; (dose: 80.0 mg/kg/injection, vehicle: methylcellulose (MC)) 73 % of control; (dose: 225.0 mg/kg/injection, vehicle: methylcellulose (MC)) 41 % of control and 46 % of control.
